Marks after values point to notes of the source that are not given here.
How the values were obtained:
[1] = system: "unknown" (unidentified) beta-lactamase; assay: Competitive assay with nitrocefin (RSAI) on an unidentified beta-lactamase; conditions: extract by the method of Example 6, assay as in Example 1; * = showed irreversible inhibition
SHV-1 [2] = target: T1, SHV-1 (Escherichia coli, UniProt P0AD63); assay: 6-well visual test with nitrocefin; conditions: 3 minutes, room temperature
OXA-2 [3] = target: T2, OXA-2 (Escherichia coli, UniProt P0A1V9); assay: 6-well visual test with nitrocefin; conditions: 3 minutes, room temperature
T2 sequence (P0A1V9 22-275): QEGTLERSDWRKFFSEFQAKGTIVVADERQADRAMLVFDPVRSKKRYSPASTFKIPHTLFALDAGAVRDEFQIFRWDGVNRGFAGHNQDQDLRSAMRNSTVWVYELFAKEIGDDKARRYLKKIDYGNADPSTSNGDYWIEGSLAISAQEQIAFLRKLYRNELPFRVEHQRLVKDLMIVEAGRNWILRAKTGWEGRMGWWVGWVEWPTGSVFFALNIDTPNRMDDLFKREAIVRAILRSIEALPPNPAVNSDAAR

OXA-3 [4] = target: T3, OXA-3 (Pseudomonas aeruginosa, UniProt Q51429); assay: 6-well visual test with nitrocefin; conditions: 3 minutes, room temperature
T3 sequence (Q51429 22-275): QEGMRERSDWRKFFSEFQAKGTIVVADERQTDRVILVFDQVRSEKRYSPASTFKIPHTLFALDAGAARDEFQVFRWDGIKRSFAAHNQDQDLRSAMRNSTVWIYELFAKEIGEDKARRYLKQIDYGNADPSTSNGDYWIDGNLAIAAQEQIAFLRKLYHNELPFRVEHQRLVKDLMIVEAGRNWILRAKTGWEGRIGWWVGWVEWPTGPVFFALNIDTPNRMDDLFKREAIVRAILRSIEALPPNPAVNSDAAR

OXA-2 [5] = target: T2, OXA-2; assay: Competitive assay with nitrocefin (RSAI); assay type: biochemical, E. coli R46; design: the beta-lactamase has to be extracted from the cells for the purpose of the present invention; made in house; host or cells: E. coli carrying R46 according to the earlier reading (crude cell extract)
TEM-1 [6] = target: T4, TEM-1 (Escherichia coli, UniProt P62593); assay: 6-well visual test with nitrocefin; conditions: 3 minutes, room temperature
[7] = target: T5, Chromosomal, constitutive beta-lactamase enzyme (Enterobacter cloacae, UniProt P05364); assay: Competitive assay with nitrocefin (RSAI); assay type: biochemical, E. cloacae
T5 construct: Normally, therefore, the beta-lactamase has to be extracted from the cells for the purpose of the present invention; endogenous in cells
T5 sequence (P05364 21-381): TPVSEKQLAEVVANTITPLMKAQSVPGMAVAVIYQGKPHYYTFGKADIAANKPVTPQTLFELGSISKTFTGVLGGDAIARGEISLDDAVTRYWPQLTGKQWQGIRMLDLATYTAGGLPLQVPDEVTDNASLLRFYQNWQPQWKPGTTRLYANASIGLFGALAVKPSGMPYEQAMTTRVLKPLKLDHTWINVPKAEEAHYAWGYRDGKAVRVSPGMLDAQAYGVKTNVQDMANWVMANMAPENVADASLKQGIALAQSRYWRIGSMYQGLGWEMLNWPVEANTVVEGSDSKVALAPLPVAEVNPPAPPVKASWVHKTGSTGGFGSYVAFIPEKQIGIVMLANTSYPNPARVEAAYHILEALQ

SHV-1 [8] = target: T1, SHV-1; assay: Competitive assay with nitrocefin (RSAI); assay type: biochemical, E. coli 2008E; design: the beta-lactamase has to be extracted from the cells for the purpose of the present invention; made in house; host or cells: E. coli 2008E (crude cell extract)
PSE-4 = PSE-4 (Pseudomonas aeruginosa, UniProt P16897); assay: Competitive assay with nitrocefin (RSAI); assay type: biochemical, Ps.aerug. 1559E; design: Normally, therefore, the beta-lactamase has to be extracted from the cells for the purpose of the present invention; endogenous in cells
Chain of PSE-4 (P16897 18-288): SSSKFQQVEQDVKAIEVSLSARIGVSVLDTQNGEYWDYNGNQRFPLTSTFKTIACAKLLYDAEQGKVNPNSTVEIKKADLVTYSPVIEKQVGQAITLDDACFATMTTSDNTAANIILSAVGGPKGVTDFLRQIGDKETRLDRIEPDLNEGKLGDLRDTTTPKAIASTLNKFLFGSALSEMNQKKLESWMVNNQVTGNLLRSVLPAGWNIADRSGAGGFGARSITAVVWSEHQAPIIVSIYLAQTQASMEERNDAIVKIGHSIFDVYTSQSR

PSE-2 = PSE-2 (Pseudomonas aeruginosa, UniProt P14489); assay: Competitive assay with nitrocefin (RSAI); assay type: biochemical, Ps.aerug. 1973E; design: Normally, therefore, the beta-lactamase has to be extracted from the cells for the purpose of the present invention; endogenous in cells
Chain of PSE-2 (P14489 20-266): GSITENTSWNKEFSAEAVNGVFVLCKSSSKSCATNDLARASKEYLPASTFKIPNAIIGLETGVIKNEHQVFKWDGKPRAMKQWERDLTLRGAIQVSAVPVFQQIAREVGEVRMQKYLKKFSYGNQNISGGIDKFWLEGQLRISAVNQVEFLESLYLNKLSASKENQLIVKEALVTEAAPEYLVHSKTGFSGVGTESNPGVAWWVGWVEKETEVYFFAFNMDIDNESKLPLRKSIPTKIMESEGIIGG

TEM-2 [9] = target: T6, TEM-2 (Escherichia coli, UniProt P62593, Q37K); assay: 6-well visual test with nitrocefin; conditions: 3 minutes, room temperature
PSE-3 [10] = assay: Competitive assay with nitrocefin (RSAI); assay type: biochemical, Ps.aerug. 1920E
PSE-1 = PSE-1 (Pseudomonas aeruginosa, UniProt Q03170); assay: Competitive assay with nitrocefin (RSAI); assay type: biochemical, Ps.aerug. 1937E; design: Normally, therefore, the beta-lactamase has to be extracted from the cells for the purpose of the present invention; endogenous in cells
Chain of PSE-1 (Q03170 18-288): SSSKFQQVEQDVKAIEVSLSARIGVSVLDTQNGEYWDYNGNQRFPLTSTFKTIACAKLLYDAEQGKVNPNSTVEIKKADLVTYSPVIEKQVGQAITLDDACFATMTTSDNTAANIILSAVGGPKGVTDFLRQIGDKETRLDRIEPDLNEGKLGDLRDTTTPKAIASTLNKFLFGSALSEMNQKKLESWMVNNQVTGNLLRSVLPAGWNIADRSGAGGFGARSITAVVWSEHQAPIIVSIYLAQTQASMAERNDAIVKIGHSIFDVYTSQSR

K17 = assay: Competitive assay with nitrocefin (RSAI); assay type: biochemical, Klebsiella 17
OXA-3 [11] = target: T3, OXA-3; assay: Competitive assay with nitrocefin (RSAI); assay type: biochemical, E. coli R57B; design: Normally, therefore, the beta-lactamase has to be extracted from the cells for the purpose of the present invention; endogenous in cells
E. cloacae = E. cloacae (Enterobacter cloacae, UniProt P05364); assay: 6-well visual test with nitrocefin; conditions: 3 minutes, room temperature
Chain of E. cloacae (P05364 21-381): as the sequence (P05364 21-381) above

[12] = target: Chromosomal, hyper-induced beta-lactamase enzyme (Escherichia coli, UniProt P00811); assay: Competitive assay with nitrocefin (RSAI); assay type: biochemical, E. coli SNU35; design: Normally, therefore, the beta-lactamase has to be extracted from the cells for the purpose of the present invention; endogenous in cells; host or cells: E. coli SNU 35 (artificially produced strain)
Chain of Chromosomal, hyper-induced beta-lactamase enzyme (P00811 20-377): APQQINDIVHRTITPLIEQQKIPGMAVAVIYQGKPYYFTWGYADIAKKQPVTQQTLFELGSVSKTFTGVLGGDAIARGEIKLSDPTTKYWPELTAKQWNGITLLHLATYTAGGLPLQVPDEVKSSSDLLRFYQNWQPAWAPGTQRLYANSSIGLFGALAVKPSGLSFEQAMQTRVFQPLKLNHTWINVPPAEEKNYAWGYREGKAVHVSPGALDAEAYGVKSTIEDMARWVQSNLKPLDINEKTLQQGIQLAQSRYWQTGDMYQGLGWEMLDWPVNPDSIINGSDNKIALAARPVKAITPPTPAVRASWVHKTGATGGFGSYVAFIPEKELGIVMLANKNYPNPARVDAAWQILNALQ

TEM-2 [13] = target: T6, TEM-2; assay: Competitive assay with nitrocefin (RSAI); assay type: biochemical, E. coli 1725E
PSE-3 [14] = assay: 6-well visual test with nitrocefin; conditions: 3 minutes, room temperature
K1073 = assay: Competitive assay with nitrocefin (RSAI); assay type: biochemical, Klebsiella 1073
Ps +AMP (Chromosomal) = Ps +AMP (Chromosomal) (Pseudomonas aeruginosa, UniProt P24735); assay: 6-well visual test with nitrocefin; conditions: 3 minutes, room temperature
Chain of Ps +AMP (Chromosomal) (P24735 27-397): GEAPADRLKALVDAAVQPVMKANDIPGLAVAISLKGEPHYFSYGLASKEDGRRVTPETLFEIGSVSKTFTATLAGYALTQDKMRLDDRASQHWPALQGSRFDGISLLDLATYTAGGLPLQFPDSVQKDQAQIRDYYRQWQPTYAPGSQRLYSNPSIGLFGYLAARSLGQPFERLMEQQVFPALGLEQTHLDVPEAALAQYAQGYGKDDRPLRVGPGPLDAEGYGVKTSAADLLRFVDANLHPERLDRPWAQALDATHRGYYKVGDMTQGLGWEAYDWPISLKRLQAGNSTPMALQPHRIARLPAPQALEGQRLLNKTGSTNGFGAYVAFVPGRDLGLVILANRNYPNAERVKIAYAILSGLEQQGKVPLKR

TEM-1 [15] = target: T4, TEM-1; assay: Competitive assay with nitrocefin (RSAI); assay type: biochemical, E. coli 2136E; design: the beta-lactamase has to be extracted from the cells for the purpose of the present invention; made in house; host or cells: E. coli 2136E (plasmid-bearing strain; crude cell extract)
[16] = well A: Cefoxitin 20:1 to nitrocefin
[17] = well E: Cefoxitin 200:1 to nitrocefin

T1 sequence (P0AD63 22-286): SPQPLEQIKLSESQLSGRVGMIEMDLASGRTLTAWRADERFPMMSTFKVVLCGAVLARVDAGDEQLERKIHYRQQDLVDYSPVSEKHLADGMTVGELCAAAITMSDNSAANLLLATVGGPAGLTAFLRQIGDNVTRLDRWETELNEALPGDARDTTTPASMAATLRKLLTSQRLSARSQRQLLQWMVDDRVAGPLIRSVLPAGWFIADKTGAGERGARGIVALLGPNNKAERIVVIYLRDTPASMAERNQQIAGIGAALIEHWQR

CO[C@@]1(NC(=O)Cc2cccs2)C(=O)N2C(C(=O)O)=C(COC(N)=O)CS[C@@H]21 [Cefoxi-tin, cefoxitin]
RSAI [1]: 0.008 | Score in 6-well visual test (SHV-1 [2]; [16]): ++ | Score in 6-well visual test (SHV-1 [2]; [17]): + | Score in 6-well visual test (OXA-2 [3]; [16]): - | Score in 6-well visual test (OXA-2 [3]; [17]): - | Score in 6-well visual test (OXA-3 [4]; [16]): - | Score in 6-well visual test (OXA-3 [4]; [17]): - | RSAI (OXA-2 [5]): 0.2 | Score in 6-well visual test (TEM-1 [6]; [16]): ++ | Score in 6-well visual test (TEM-1 [6]; [17]): - | RSAI [7]: 0.01 | RSAI (SHV-1 [8]): 600 | RSAI (PSE-4): 27 | RSAI (PSE-2): 24 | Score in 6-well visual test (TEM-2 [9]; [16]): ++ | Score in 6-well visual test (TEM-2 [9]; [17]): - | RSAI (PSE-3 [10]): 11.4 | RSAI (PSE-1): 20 | RSAI (K17): 1.6 | RSAI (OXA-3 [11]): 0.004 | Score in 6-well visual test (E. cloacae; [16]): - | Score in 6-well visual test (E. cloacae; [17]): - | RSAI [12]: 0.0008 | RSAI (TEM-2 [13]): 60* | Score in 6-well visual test (PSE-3 [14]; [16]): + | Score in 6-well visual test (PSE-3 [14]; [17]): - | RSAI (K1073): 1020 | Score in 6-well visual test (Ps +AMP (Chromosomal); [16]): - | Score in 6-well visual test (Ps +AMP (Chromosomal); [17]): - | RSAI (TEM-1 [15]): 60*

— EP0059645A1, “Method and kit for identification of beta-lactamases” (NATIONAL RESEARCH DEVELOPMENT CORPORATION, priority 1981, dated 1982)
